“And” between values parts separate entries of the source, which are not always exact repeats. Equal entries are not always repeated.
Columns and labels:
ΔF508-CFTR [1] = molecular target: T1, ΔF508-CFTR (Homo sapiens, UniProt P13569, DEL508-508); experiment: Whole-cell patch-clamp in FRT cells expressing ΔF508-CFTR; type: cell-based; set-up: expressed in transfected cells; host or cells: Fisher rat thyroid (FRT) cells, co-expressing halide sensor YFP-H148Q/I152L; provided by Dr. Alan Verkman
Method: Whole-cell patch-clamp recordings were performed on WT- or ΔF508-CFTR-expressing FRT cells. The bath solution contained (in mM): 140 NMDG-Cl, 1 CaCl2, 1 MgCl2, 10 glucose and 10 HEPES (pH 7.4). The pipette solution contained (in mM): 130 CsCl, 0.5 EGTA, 1 MgCl2, 1 Tris-ATP, and 10 HEPES (pH 7.2). Pipettes were pulled from borosilicate glass and had resistances of 3–5 MΩ after fire polishing. Seal resistances were between 3 and 10 GΩ. After establishing the whole-cell configuration, CFTR was activated by forskolin and/or CP7q. Whole-cell currents were elicited by applying hyperpolarizing and depolarizing voltage pulses from a holding potential of 0 mV to potentials between -80 mV and +80 mV in steps of 20 mV. Recordings were made at room temperature using an Axopatch-200B (Axon Instruments). Currents were digitized and analyzed using a Digidata 1440A converter (Axon Instruments), and pCLAMP 10.2 software (Molecular Devices, Sunnyvale, CA). Currents were low-pass filtered at 1 kHz and sampled at 5 kHz

ΔF508-CFTR [2] = molecular target: T1, ΔF508-CFTR; experiment: Apical membrane current (Ussing chamber) in FRT cells expressing low temperature-rescued ΔF508-CFTR; type: cell-based; set-up: expressed in transfected cells; host or cells: Fisher rat thyroid (FRT) cells, co-expressing halide sensor YFP-H148Q/I152L; provided by Dr. Alan Verkman; details: 20 μM forskolin
Method: Snapwell inserts containing CFTR-expressing FRT and primary culture of human nasal epithelial cells were mounted in Ussing chambers (Physiologic Instruments, San Diego, CA). Forskolin, genistein, CP7q and CFTRinh-172 were added to the apical and basolateral bath solution. For FRT cells, the apical bath was filled with a half-Cl^- solution and the basolateral bath was filled with HCO3^—buffered solution, and the basolateral membrane was permeabilized with 250 μg/mL amphotericin B. For primary cultures of human nasal epithelial cells, symmetrical HCO3^—buffered solutions were used and ENaC was inhibited by pre-treatment with amiloride (100 μM). All cells were bathed for a 20 min stabilization period and aerated with 95% O2 / 5% CO2 at 37°C. Apical membrane current and short-circuit current were measured with an EVC4000 Multi-Channel V/I Clamp (World Precision Instruments, Sarasota, FL) and recorded using PowerLab 4/35 (AD Instruments, Castle Hill, Australia). Data were collected and analyzed with ADInstruments acquisition software Labchart Pro 7 software. The sampling rate was 4 Hz.

ΔF508-CFTR [3] = molecular target: T1, ΔF508-CFTR; experiment: Immunoblot of ΔF508-CFTR band C/B in A549-ΔF508-CFTR cells; type: cell-based; set-up: expressed in transfected cells; details: 48 h, combined with 5 μM VX-809, 10 μM CP7q, vs VX-809 alone
Method: A549 cells stably expressing ΔF508-CFTR were lysed with cell lysis buffer (50 mM Tris-HCl, pH 7.4, 1% Nonidet P-40, 0.25% sodium deoxycholate, 150 mM NaCl, 1 mM EDTA, 1 mM Na3VO4, and protease inhibitor mixture). Whole cell lysates were centrifuged at 15,000 g for 10 min at 4°C to remove the cell debris, and equal amounts (80 μg protein/lane) of supernatant protein were separated by 4–12% Tris-glycine precast gel (KOMA BIOTECH, Seoul, Korea) and then transferred onto PVDF membrane (Millipore, Billerica, MA). Membrane was blocked with 5% non-fat skim milk in PBS including 0.05% Tween 20 for 1 hour at room temperature. This membrane was then incubated overnight with primary CFTR antibody (M3A7, Millipore, Billerica, MA). After washing with 0.05% Tween 20 in PBS (PBST), the blot was further incubated for 45 min at room temperature with an anti-mouse secondary antibody (Cell Signaling). The membrane was then washed three times with PBST for 5 minutes and then visualized using the ECL Plus western blotting detection system (GE Healthcare Amersham; Piscataway, NJ). The immunoblot results were analyzed quantitatively by ImageJ Software.

WT-CFTR = molecular target: T2, WT-CFTR (Homo sapiens, UniProt P13569); experiment: Halide-sensitive YFP microplate reader assay of CFTR potentiation, WT-CFTR; type: cell-based; details: FRT cells, 0.1 μM forskolin
T2 construct: expressed in transfected cells; host or cells: Fisher rat thyroid (FRT) cells, co-expressing halide sensor YFP-H148Q/I152L; provided by Dr. Alan Verkman
Method: FRT cells expressing wild type- or ΔF508-CFTR with the halide sensor YFP-H148Q/I152L were plated in 96-well black-walled microplates (Corning Inc., Corning, NY) at a density of 2 x10^4cells per well. FRT-WT-CFTR-YFP cells were incubated for 48 h at 37°C, and FRT-ΔF508-CFTR-YFP cells were incubated for 24 h at 27°C after 24 h incubation at 37°C to rescue ΔF508-CFTR localization. Assays were done using FLUO star Omega microplate reader (BMG Labtech, Ortenberg, Germany) and MARS Data Analysis Software (BMG Labtech). Each well of a 96-well plate was washed 3 times in PBS (200 μL/wash). 100 μL PBS was added to each well. Forskolin (0.1 and 10 μM for WT- and ΔF508-CFTR, respectively) and test compounds (1 μL) were added to each well. After 10 min, 96-well plates were transferred to the microplate reader preheated to 37°C for fluorescence assay. Each well was assayed individually for CFTR-mediated I^- influx by recording fluorescence continuously (200 ms per point) for 2 s (baseline), then 100 μL of 140 mM I^- solution was added at 2 s and then YFP fluorescence was recorded for 14 s. Initial iodide influx rate was determined from the initial slope of fluorescence decrease, by nonlinear regression, following infusion of iodide.

HT-29 cells = experiment: MTS cell viability assay; type: cell-based, human; details: 24 h, up to 10 μM
Method: HT-29 human colon adenocarcinoma cells were plated at a density of 1 x10^4 per cm^2on 96-well microplates. After 24 h incubation, cells were treated with hydroxypyrazolines and then incubated for 1 day. An equal amount of DMSO was added to the all control. The culture medium and the compounds were changed every 12 h. For MTS assay, the cells were reincubated with MTS for 1 hour. The soluble formazan produced by cellular reduction of MTS was quantified by measuring the absorbance at 490 nm with Infinite M200 (Tecan, Grödig, Austria) microplate reader. MTS assay was done using CellTiter 96® AQueous One Solution Cell Proliferation Assay kit (Promega, Madison, WI, USA).

T1 sequence (P13569 with tags, fused parts or gaps DEL508-508): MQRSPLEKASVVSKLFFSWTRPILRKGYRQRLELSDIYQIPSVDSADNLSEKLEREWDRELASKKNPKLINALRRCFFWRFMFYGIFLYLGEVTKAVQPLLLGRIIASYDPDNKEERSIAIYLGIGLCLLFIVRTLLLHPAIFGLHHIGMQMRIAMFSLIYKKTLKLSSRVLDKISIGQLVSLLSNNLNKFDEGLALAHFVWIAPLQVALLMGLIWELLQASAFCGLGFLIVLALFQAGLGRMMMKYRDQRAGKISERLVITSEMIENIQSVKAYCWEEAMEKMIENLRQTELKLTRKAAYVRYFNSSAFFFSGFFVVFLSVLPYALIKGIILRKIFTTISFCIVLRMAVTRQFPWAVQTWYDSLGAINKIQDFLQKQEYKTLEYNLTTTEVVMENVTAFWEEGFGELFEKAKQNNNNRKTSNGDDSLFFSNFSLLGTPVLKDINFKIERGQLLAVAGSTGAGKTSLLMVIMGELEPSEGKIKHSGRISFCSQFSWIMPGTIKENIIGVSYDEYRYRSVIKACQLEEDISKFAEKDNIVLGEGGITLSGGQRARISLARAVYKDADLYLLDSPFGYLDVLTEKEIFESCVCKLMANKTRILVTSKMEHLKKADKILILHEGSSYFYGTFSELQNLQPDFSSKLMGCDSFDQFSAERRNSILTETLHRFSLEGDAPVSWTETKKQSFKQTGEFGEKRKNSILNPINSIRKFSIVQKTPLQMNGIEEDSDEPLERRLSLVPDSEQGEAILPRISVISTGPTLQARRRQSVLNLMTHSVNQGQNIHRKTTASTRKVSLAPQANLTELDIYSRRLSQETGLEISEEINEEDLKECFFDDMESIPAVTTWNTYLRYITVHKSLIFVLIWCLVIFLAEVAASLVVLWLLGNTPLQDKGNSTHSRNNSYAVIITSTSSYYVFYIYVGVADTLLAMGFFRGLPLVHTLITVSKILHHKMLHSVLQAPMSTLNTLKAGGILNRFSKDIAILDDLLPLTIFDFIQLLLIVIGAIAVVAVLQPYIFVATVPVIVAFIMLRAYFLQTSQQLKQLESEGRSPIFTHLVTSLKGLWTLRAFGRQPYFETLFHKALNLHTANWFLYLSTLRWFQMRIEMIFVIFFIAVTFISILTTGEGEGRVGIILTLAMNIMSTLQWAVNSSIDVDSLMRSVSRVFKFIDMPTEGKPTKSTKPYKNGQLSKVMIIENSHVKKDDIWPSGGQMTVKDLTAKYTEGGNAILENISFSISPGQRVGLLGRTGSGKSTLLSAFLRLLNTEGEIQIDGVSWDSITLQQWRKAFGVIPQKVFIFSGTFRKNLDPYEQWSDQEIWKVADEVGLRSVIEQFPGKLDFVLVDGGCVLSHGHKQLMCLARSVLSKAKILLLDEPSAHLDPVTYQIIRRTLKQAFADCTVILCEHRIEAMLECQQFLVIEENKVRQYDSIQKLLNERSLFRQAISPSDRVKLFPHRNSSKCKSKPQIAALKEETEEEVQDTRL

COc1ccc(C2CC(c3ccc(O)cc3O)=NN2c2ccc(S(N)(=O)=O)cc2)c(OC)c1 (stereo not shown) [Compound 7q, 4-[3-(2,4-dihydroxyphenyl)-5-(2,4-dimethoxyphenyl)-4,5-dihydro-1H-pyrazol-1-yl] benzenesulfonamide]
Potentiation of whole-cell ΔF508-CFTR Cl- current (ΔF508-CFTR [1]; 10 μM forskolin, 10 μM CP7q, 27°C rescue): significantly potentiated | Activation of ΔF508-CFTR without forskolin stimulation (ΔF508-CFTR [1]; whole cell patch-clamp, no forskolin): did not activate | Efficacy of ΔF508-CFTR potentiation compared with genistein (ΔF508-CFTR [2]; genistein 50 μM): slightly higher than that of genistein | EC50 (ΔF508-CFTR [2]; FRT cells, 27°C rescue 24 h): 4.45 µM and ~4.45 µM | Effect on ratio of band C to band B of ΔF508-CFTR (ΔF508-CFTR [3]): strongly increased | EC50 (WT-CFTR): 0.9 µM | Cytotoxicity (cell viability, MTS) (HT-29 cells): no cytotoxicity
